Results: patent publication US20030034248A1, “Electrodeposition baths containing boron-containing compounds and methods related thereto” (priority 2001, published 2003)

System: bacteria
Experiment: Bacteria resistance testing: bacteria counts (spread plate, R2A agar) in infected electrodeposition ultrafiltrate permeate
Format: cell-based
Conditions: for Bacteria Count 3 day: plated at 3 days; for Bacteria Count 7 day: plated at 7 days; for Bacteria Count 10 day: plated at 10 days
Procedure: Infected ultrafiltrate from an online electrodeposition bath tank (containing E6100H, commercially available from PPG Industries, Inc.) having a bacterial count of 4.5×10^6 cfu/mL was used to inoculate filter-sterilized ultrafiltrate (“permeate”) collected from the same line. The infected ultrafiltrate was diluted by a factor of 10^4 into the sterile permeate. The infected permeate was added to reactors. The various acids listed below in the following Table 2 were prepared as 1 % solutions in water and tested at 2000, 1000, 500, 200, 100, and 50 ppm of active material. Reactors were rolled for 10 days at 32° C. and were plated for bacteria counts at 3, 7, and 10 days.
The enumeration of […] heterotrophs in the reactors utilized the standard spread plate method as described in Standard Methods for the Examination of Water and Wastewater, 1992, section 9215C. Bacterial counts were examined using R2A agar plates. 100 μL of a suitable dilution of sample was pipetted onto the surface of the media and spread with an alcohol and flame sterilized glass rod. The plates were inverted and incubated for 3 days at 32° C. with periodic examination. Colony forming units were counted on a New Brunswick Bactronic Colony Counter. A target of 30 to 300 cfu per plate was considered a valid count.

[1] = acid at 50 ppm of active material (boric acid: 8.9 ppm B), 32° C.
[2] = acid at 100 ppm of active material (boric acid: 17.8 ppm B), 32° C.
[3] = acid at 200 ppm of active material (boric acid: 35.5 ppm B), 32° C.
[4] = acid at 500 ppm of active material (boric acid: 89 ppm B), 32° C.
[5] = acid at 1000 ppm of active material (boric acid: 177.5 ppm B), 32° C.
[6] = acid at 2000 ppm of active material (boric acid: 355 ppm B), reactors rolled at 32° C.

SMILES | Bacteria Count 3 day [1] | Bacteria Count 7 day [1] | Bacteria Count 10 day [1] | Bacteria Count 3 day [2] | Bacteria Count 7 day [2] | Bacteria Count 10 day [2] | Bacteria Count 3 day [3] | Bacteria Count 7 day [3] | Bacteria Count 10 day [3] | Bacteria Count 3 day [4] | Bacteria Count 7 day [4] | Bacteria Count 10 day [4] | Bacteria Count 3 day [5] | Bacteria Count 7 day [5] | Bacteria Count 10 day [5] | Bacteria Count 3 day [6] | Bacteria Count 7 day [6] | Bacteria Count 10 day [6] | levels at which the growth of bacteria is retarded (as compared to lactic acid in an analogous composition, summary of Table 2) [ppm]
CC(O)C(=O)O (stereo not shown) [Lactic Acid, reference compound] | 9.2 × 10^5 | 4.4 × 10^7 | 3.8 × 10^7 | 8.8 × 10^5 | 4.4 × 10^7 | 2.4 × 10^6 | 1.5 × 10^6 | 1.6 × 10^7 | 1.2 × 10^7 | 1.6 × 10^7 | 4.0 × 10^7 | 2.8 × 10^6 | 9.6 × 10^6 | 3.2 × 10^7 | <4.0 × 10^5 | 2.1 × 10^6 | 4.8 × 10^7 | 1.1 × 10^7 | 
OB(O)O [Boric Acid] | 8.8 × 10^2 | 4.6 × 10^6 | 4.0 × 10^3 | 3.0 × 10^2 | 5.6 × 10^5 | 1.4 × 10^7 | 3.6 × 10^2 | 2.8 × 10^3 | 2.0 × 10^6 | <4.0 × 10^1 | <4.0 × 10^1 | <4.0 × 10^1 | <4.0 × 10^1 | <4.0 × 10^1 | <4.0 × 10^1 | <4.0 × 10^1 | <4.0 × 10^1 | <4.0 × 10^1 | ≥ 500
